According to patent US20220125959A1, “PROSTATE-SPECIFIC MEMBRANE ANTIGEN (PSMA) INHIBITORS AS DIAGNOSTIC AND RADIONUCLIDE THERAPEUTIC AGENTS” (FIVE ELEVEN PHARMA INC., priority 2019, published 2022):
Several values for one entry are separate records, joined by “and”; a condition that tells them apart may be missing. Identical values can stand only once.

Tests used:
[1] = Stability of injected doses after formulation; assay type: physicochemical; settings: at 48 hr after formulation
Description: ^68Ga labeling: To 15 nmole ligand 4 (1 mg/mL DMSO) were added 20 μL of 2.0 N NaOAc, 500 μL ^68Ga-solution (2.25 mCi). The reaction was heated in a heating block at 90° C. for 10 minutes in a 3 mL closed vial. After cooling, the sample was analyzed by HPLC (HPLC: Eclise XDB C18 150×4.6 mm, gradient, 2 mL/min; A: 0.1% TFA in water; B: 0.1% TFA in ACN: 0-2 min 100% A; 2-4 min: from 0% to 100% B; 4-9 min: 100% B; 9-10 min: from 100% to 0% B). Radiochemical purity of [^68Ga]4 was >99% RCP (FIG. 1) and injected doses were stable at 2 hr after formulation.
(§1) ^177Lu labeling: To 10 μg ligand (1 mg/mL DMSO) were added 15 μL of 2.0 N NaOAc, 400 μL 0.05 N HCl, and 20 μL ^177Lu-solution (780 μCi (Capintec setting 450 (reading×10)). The reaction was heated with a heating block at 95° C. for 1 hour in a 3 mL closed vial. After cooling, the sample was analyzed by HPLC (HPLC: Eclipse XDB-C18 150×4.6 mm, gradient, 1 mL/min; A: 0.1% TFA in water; B: 0.1% TFA in ACN: 0-4 min A/B 85/15%; 4-11 min: from 85/15 to 30/70%; 11-14 min: from 30/70% to 85/15%). Radiochemical purity of [^177Lu]4 (FIG. 2) and [^177Lu]7 was >98% and injected doses were stable at 48 hr after formulation.
(§2) For iv injection 150 μL of labeled solution was diluted with saline to 3.75mL. Mice were injected with 150 μL of formulated dose. Injected radioactivity was 100 μCi and PSMA ligand amount was constant at 0.72 nmole/mouse.

[2] = system: PSMA-positive cell line, PIP PC3; test: In vitro cell uptake, PIP PC3 cells; assay type: cell-based
Description: To determine the cell uptakes of the [^177Lu] labelled ligands, 5×10^5 cells/well were grown in 12-well plates in 1 mL of medium for 48 h. The cells were washed twice with PBS, and 900 μL fresh media were added. […] All samples were prepared in triplicate. Following the incubation at 37° C., cells were washed twice to remove unbound activity and afterwards lysed in 1 mL of 0.5 M NaOH. Activity was measured in a gamma counter. Aliquots of the solution added to the cells were also measured for the calculation of the cellular uptake as % ID.

[3] = system: PSMA-negative cell line, PC3; test: In vitro cell uptake, PC3 cells; assay type: cell-based; settings: PC3 (do not express PSMA), 60 min
Description: To determine the cell uptakes of the [^177Lu] labelled ligands, 5×10^5 cells/well were grown in 12-well plates in 1 mL of medium for 48 h. The cells were washed twice with PBS, and 900 μL fresh media were added. Radiolabelled ligand was added and the PSMA-inhibitor (2-PMPA) was applied in a final concentration of 10 μM to determine unspecific binding. All samples were prepared in triplicate. Following the incubation at 37° C., cells were washed twice to remove unbound activity and afterwards lysed in 1 mL of 0.5 M NaOH. Activity was measured in a gamma counter. Aliquots of the solution added to the cells were also measured for the calculation of the cellular uptake as % ID.

[4] = system: PC3-PIP (PSMA positive) and PC-3 tumors (PSMA negative); test: Biodistribution of 177Lu labeled compounds 4 and 7 in tumor bearing nude mice; assay type: in vivo, CD-1 male nude mice
Description: as §1, §2
Biodistribution of [^68Ga]4, [^177Lu]4 and [^177Lu]7 was determined in nude mice bearing PIP PC3 (PSMA positive) and PC3 (PSMA negative) tumors on the left and right shoulder, respectively, over a period of 192 h (Table 3a, 3b and 3c). […] The uptake in PC3 tumors (PSMA negative) of both ligands, [^177Lu]4 and [^177Lu]7, was clearly much lower than those of PC-3 PIP tumors (PSMA positive).

SMILES: O=C(O)CC[C@H](NC(=O)N[C@@H](CCCCNC(=O)[C@H](Cc1ccccc1)NC(=O)COc1ccc(C[C@H](NC(=O)CNC(=O)CCC(C(=O)O)N2CCN(CC(=O)O)CCN(C(CCC(=O)NCCOCCOCCNC(=O)CCCc3ccc(I)cc3)C(=O)O)CCN(CC(=O)O)CC2)C(=O)O)cc1)C(=O)O)C(=O)O.[177Lu] (some centres unmarked) [[^177Lu]7]
- Stability of injected doses [1]: stable
- In vitro cell uptake ([2]; PIP PC3, 5 min): 5.0 % ID per 5 × 10^5 cells
- In vitro cell uptake ([2]; PIP PC3, 15 min): 7.8 % ID per 5 × 10^5 cells
- In vitro cell uptake ([2]; PIP PC3, 30 min): 10.1 % ID per 5 × 10^5 cells
- In vitro cell uptake ([2]; PIP PC3, 60 min): 11.4 % ID per 5 × 10^5 cells
- In vitro cell uptake ([2]; PIP PC3, 60 min, with PSMA inhibitor (2-PMPA, 2 uM)): 1.3 % ID per 5 × 10^5 cells
- In vitro cell uptake ([2]; PIP PC3, 120 min): 11.9 % ID per 5 × 10^5 cells
- In vitro cell uptake [3]: 0.7 % ID per 5 × 10^5 cells
- Biodistribution: Blood ([4]; 1 hr): 13.20 ± 3.17 % dose/g
- Biodistribution: Bone ([4]; 1 hr): 1.78 ± 0.97 % dose/g
- Biodistribution: Brain ([4]; 1 hr): 0.35 ± 0.04 % dose/g
- Biodistribution: Heart ([4]; 1 hr): 3.79 ± 0.67 % dose/g
- Biodistribution: Intestine ([4]; 1 hr): 1.89 ± 0.18 % dose/g
- Biodistribution: Kidney ([4]; 1 hr): 37.38 ± 4.08 % dose/g
- Biodistribution: Liver ([4]; 1 hr): 2.63 ± 0.69 % dose/g
- Biodistribution: Lung ([4]; 1 hr): 5.89 ± 0.53 % dose/g
- Biodistribution: Muscle ([4]; 1 hr): 1.88 ± 0.27 % dose/g
- Biodistribution: PC3 tumor ([4]; 1 hr): 5.26 ± 1.63 % dose/g
- Biodistribution: PIP PC3 tumor ([4]; 1 hr): 12.51 ± 0.94 % dose/g
- Biodistribution: Pancreas ([4]; 1 hr): 1.71 ± 0.40 % dose/g
- Biodistribution: Skin ([4]; 1 hr): 5.18 ± 1.59 % dose/g
- Biodistribution: Spleen ([4]; 1 hr): 2.87 ± 0.82 % dose/g
- Biodistribution: Stomach ([4]; 1 hr): 1.57 ± 0.39 % dose/g
- Biodistribution: Blood ([4]; 4 hrs): 12.06 % dose/g and 12.06 ± 2.26 % dose/g
- Biodistribution: Bone ([4]; 4 hrs): 2.05 ± 0.89 % dose/g
- Biodistribution: Brain ([4]; 4 hrs): 0.37 ± 0.08 % dose/g
- Biodistribution: Heart ([4]; 4 hrs): 3.96 ± 0.63 % dose/g
- Biodistribution: Intestine ([4]; 4 hrs): 2.97 ± 1.71 % dose/g
- Biodistribution: Kidney ([4]; 4 hrs): 60.07 ± 2.41 % dose/g
- Biodistribution: Liver ([4]; 4 hrs): 2.92 ± 0.85 % dose/g
- Biodistribution: Lung ([4]; 4 hrs): 6.07 ± 0.66 % dose/g
- Biodistribution: Muscle ([4]; 4 hrs): 1.55 ± 0.84 % dose/g
- Biodistribution: PC3 tumor ([4]; 4 hrs): 5.17 ± 1.02 % dose/g
- Biodistribution: PIP PC3 tumor ([4]; 4 hrs): 35.34 ± 12.11 % dose/g
- Biodistribution: Pancreas ([4]; 4 hrs): 2.08 ± 0.82 % dose/g
- Biodistribution: Skin ([4]; 4 hrs): 5.85 ± 2.04 % dose/g
- Biodistribution: Spleen ([4]; 4 hrs): 6.16 ± 2.81 % dose/g
- Biodistribution: Stomach ([4]; 4 hrs): 1.86 ± 1.12 % dose/g
- Biodistribution: Blood ([4]; 24 hrs (1 day)): 1.79 ± 0.98 % dose/g
- Biodistribution: Bone ([4]; 24 hrs (1 day)): 0.33 ± 0.14 % dose/g
- Biodistribution: Brain ([4]; 24 hrs (1 day)): 0.08 ± 0.04 % dose/g
- Biodistribution: Heart ([4]; 24 hrs (1 day)): 0.73 ± 0.42 % dose/g
- Biodistribution: Intestine ([4]; 24 hrs (1 day)): 0.41 ± 0.24 % dose/g
- Biodistribution: Kidney ([4]; 24 hrs (1 day)): 18.51 ± 7.79 % dose/g
- Biodistribution: Liver ([4]; 24 hrs (1 day)): 0.57 ± 0.27 % dose/g
- Biodistribution: Lung ([4]; 24 hrs (1 day)): 1.33 ± 0.85 % dose/g
- Biodistribution: Muscle ([4]; 24 hrs (1 day)): 0.36 ± 0.24 % dose/g
- Biodistribution: PC3 tumor ([4]; 24 hrs (1 day)): 2.15 ± 0.69 % dose/g
- Biodistribution: PIP PC3 tumor ([4]; 24 hrs (1 day)): 35.34±12.11 % dose/g and 34.36 ± 6.87 % dose/g
- Biodistribution: Pancreas ([4]; 24 hrs (1 day)): 0.45 ± 0.30 % dose/g
